Calls of active or inactive are those of the source. The calls are words filed in the database; no cut-off is given here.
Legend:
Calf thymus DNA [1] = assay: Binding affinity to calf thymus DNA assessed as DNA intercalation at 1 to 50 uM by circular dichroism analysis; type: nucleic-acid assay; conditions: Bos taurus
Homo sapiens = species: Homo sapiens; assay: Inhibition of human DNA topoisomerase 2 assessed as inhibition of DNA cleavage
Escherichia coli [2] = assay: Binding affinity to Escherichia coli pUC19 plasmid assessed as nicked DNA at 5 to 50 uM by ethidium bromide staining-based agarose gel electrophoresis
HCT-116 [3] = assay: Cell cycle arrest in human HCT116 cells assessed as accumulation at subG1 phase at 0.1 uM after 48 hrs by propidium iodide staining-based FACS analysis (reference value: 5 +/- 2 %); type: functional
HCT-116 [4] = assay: Cell cycle arrest in human HCT116 cells assessed as accumulation at subG1 phase at 5 uM after 24 hrs by propidium iodide staining-based FACS analysis; type: functional
HCT-116 [5] = assay: Cell cycle arrest in human HCT116 cells assessed as accumulation at subG1 phase at 1 uM after 24 hrs by propidium iodide staining-based FACS analysis (reference value: 2 +/- 0.1 %); type: functional
HCT-116 [6] = assay: Cell cycle arrest in human HCT116 cells assessed as accumulation at subG1 phase after 24 hrs by propidium iodide staining-based FACS analysis; type: functional
Calf thymus DNA [7] = assay: Binding affinity to calf thymus DNA assessed as change in melting temperature at 0.5 drug/DNA ratio by spectrophotometry; type: nucleic-acid assay; conditions: Bos taurus
HCT-116 [8] = assay: Cell cycle arrest in human HCT116 cells assessed as accumulation at G2/M phase at 0.1 uM after 24 hrs by propidium iodide staining-based FACS analysis (reference value: 29 +/- 8 %); type: functional
MCF7 = assay: Cytotoxicity against human MCF7 cells after 72 hrs by MTT assay; type: functional, cell-based; conditions: MCF7, 72 h
Escherichia coli [9] = assay: Induction of topoisomerase1-mediated Escherichia coli pUC19 plasmid relaxation at 20 to 50 uM incubated for 45 mins prior to topoisomerase1 addition by agarose gel electrophoresis
HCT-116 [10] = assay: Cell cycle arrest in human HCT116 cells assessed as accumulation at G2/M phase at 0.1 uM after 48 hrs by propidium iodide staining-based FACS analysis (reference value: 28 +/- 3 %); type: functional
HCT-116 [11] = assay: Cell cycle arrest in human HCT116 cells assessed as accumulation at S phase at 0.1 uM after 24 hrs by propidium iodide staining-based FACS analysis (reference value: 48 +/- 6 %); type: functional
HCT-116 [12] = assay: Cell cycle arrest in human HCT116 cells assessed as accumulation at subG1 phase at 0.1 uM after 24 hrs by propidium iodide staining-based FACS analysis (reference value: 2 +/- 0.1 %); type: functional
HCT-116 [13] = assay: Cell cycle arrest in human HCT116 cells assessed as accumulation at G1 phase at 0.1 uM after 48 hrs by propidium iodide staining-based FACS analysis (reference value: 60 +/- 2 %); type: functional
[14] = target: T1, DNA topoisomerase 1 (Homo sapiens) (UniProt P11387); assay: Inhibition of human DNA topoisomerase 1 assessed as inhibition of DNA cleavage
T1 sequence (whole entry): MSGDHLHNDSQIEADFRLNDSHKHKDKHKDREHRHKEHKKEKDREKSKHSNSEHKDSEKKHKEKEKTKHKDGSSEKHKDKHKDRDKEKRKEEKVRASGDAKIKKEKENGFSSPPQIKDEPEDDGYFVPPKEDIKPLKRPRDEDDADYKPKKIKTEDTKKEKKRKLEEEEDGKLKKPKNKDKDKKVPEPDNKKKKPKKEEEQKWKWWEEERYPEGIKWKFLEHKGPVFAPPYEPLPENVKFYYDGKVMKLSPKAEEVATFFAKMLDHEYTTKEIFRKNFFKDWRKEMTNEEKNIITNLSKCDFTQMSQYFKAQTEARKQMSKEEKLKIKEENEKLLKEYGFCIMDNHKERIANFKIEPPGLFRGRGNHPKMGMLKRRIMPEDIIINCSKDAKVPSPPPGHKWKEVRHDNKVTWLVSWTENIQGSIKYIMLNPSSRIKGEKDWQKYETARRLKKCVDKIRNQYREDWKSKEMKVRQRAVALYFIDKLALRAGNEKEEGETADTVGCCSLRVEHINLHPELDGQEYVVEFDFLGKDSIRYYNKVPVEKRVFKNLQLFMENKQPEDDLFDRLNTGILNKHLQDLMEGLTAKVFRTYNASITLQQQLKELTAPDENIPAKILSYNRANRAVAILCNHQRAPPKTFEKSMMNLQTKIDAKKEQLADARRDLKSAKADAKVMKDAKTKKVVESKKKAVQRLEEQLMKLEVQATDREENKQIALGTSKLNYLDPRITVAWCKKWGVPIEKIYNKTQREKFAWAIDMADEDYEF

HCT-116 [15] = assay: Cytotoxicity against human HCT116 cells after 72 hrs by MTT assay; type: functional, cell-based; conditions: HCT-116, 72 h
[16] = Cytotoxicity against human H460 cells after 72 hrs by MTT assay; type: functional, cell-based; conditions: NCI-H460, 72 h
HCT-116 [17] = assay: Cell cycle arrest in human HCT116 cells assessed as accumulation at G2/M phase at 1 uM after 48 hrs by propidium iodide staining-based FACS analysis (reference value: 28 +/- 3 %); type: functional
DNA = assay: Induction of DNA damage in plasmid DNA in E. coli S30 cell-free system assessed as inhibition of EGFP translation at 50 uM after 1 hr by fluorescence assay
[18] = Drug uptake in human H460 cell cytoplasm at 10 uM after 2 hrs by fluorescence microscopy; type: ADME, cell-based; conditions: h460, 2 h
HCT-116 [19] = assay: Cell cycle arrest in human HCT116 cells assessed as accumulation at G2/M phase at 1 uM after 24 hrs by propidium iodide staining-based FACS analysis (reference value: 29 +/- 8 %); type: functional
HCT-116 [20] = assay: Cell cycle arrest in human HCT116 cells assessed as accumulation at subG1 phase at 1 uM after 48 hrs by propidium iodide staining-based FACS analysis (reference value: 5 +/- 2 %); type: functional
Escherichia coli [21] = assay: Binding affinity to Escherichia coli pUC19 plasmid assessed as induction of topoisomerase1-mediated DNA relaxation at 1 uM incubated for 45 mins prior to topoisomerase1 addition by agarose gel electrophoresis
HCT-116 [22] = assay: Cell cycle arrest in human HCT116 cells assessed as accumulation at S phase at 1 uM after 48 hrs by propidium iodide staining-based FACS analysis (reference value: 12+/- 5 %); type: functional
HCT-116 [23] = assay: Cell cycle arrest in human HCT116 cells assessed as accumulation at S phase at 0.1 uM after 48 hrs by propidium iodide staining-based FACS analysis (reference value: 12+/- 5 %); type: functional
Calf thymus DNA [24] = assay: Binding affinity to calf thymus DNA assessed as hypochromic shift at 20 uM by UV/visible spectrophotometry; type: nucleic-acid assay; conditions: Bos taurus
HCT-116 [25] = assay: Cell cycle arrest in human HCT116 cells assessed as accumulation at S phase at 1 uM after 24 hrs by propidium iodide staining-based FACS analysis (reference value: 48 +/- 6 %); type: functional
HCT-116 [26] = assay: Cell cycle arrest in human HCT116 cells assessed as accumulation at G1 phase at 0.1 uM after 24 hrs by propidium iodide staining-based FACS analysis (reference value: 23 +/- 2 %); type: functional
HCT-116 [27] = assay: Cell cycle arrest in human HCT116 cells assessed as accumulation at G1 phase at 1 uM after 24 hrs by propidium iodide staining-based FACS analysis (reference value: 23 +/- 2 %); type: functional
HCT-116 [28] = assay: Cell cycle arrest in human HCT116 cells assessed as accumulation at G1 phase at 1 uM after 48 hrs by propidium iodide staining-based FACS analysis (reference value: 60 +/- 2 %); type: functional
Nucleic Acid = assay: DNA intercalating activity at Escherichia coli pUC19 plasmid assessed as effect on global structure of DNA helix at 5 to 50 uM incubated for 45 mins prior to topoisomerase1 addition by agarose gel electrophoresis; type: nucleic-acid assay

CC(C)CNc1ccc2cc(C#N)c3nc4ccccc4n3c2c1
Activity (Calf thymus DNA [1]): inactive | Activity (Homo sapiens): inactive | Activity (Escherichia coli [2]): Active | Activity (HCT-116 [3]): 6% | Activity (HCT-116 [4]): 40% | Activity (HCT-116 [5]): 16% | Activity (HCT-116 [6]): Dose-dependent effect | ΔTm (Calf thymus DNA [7]): 3.8 °C | Activity (HCT-116 [8]): 42% | IC50 (MCF7): 400 nM | Activity (Escherichia coli [9]): inactive | Activity (HCT-116 [10]): 17% | Activity (HCT-116 [11]): 44% | Activity (HCT-116 [12]): 4% | Activity (HCT-116 [13]): 62% | Activity [14]: inactive | IC50 (HCT-116 [15]): 600 nM | IC50 [16]: 300 nM | Activity (HCT-116 [17]): 90% | inhibition at 50 µM (DNA): 17% | Drug uptake [18]: Active | Activity (HCT-116 [19]): 85% | Activity (HCT-116 [20]): 30% | Activity (Escherichia coli [21]): Active | Activity (HCT-116 [22]): 0% | Activity (HCT-116 [23]): 21% | Activity (Calf thymus DNA [24]): Active | Activity (HCT-116 [25]): 8% | Activity (HCT-116 [26]): 14% | Activity (HCT-116 [27]): 7% | Activity (HCT-116 [28]): 10%

CC[C@@]1(O)C(=O)OCc2c1cc1n(c2=O)Cc2cc3ccccc3nc2-1
inhibition (DNA): inactive

CCCCNc1ccc2cc(C#N)c3nc4ccccc4n3c2c1
IC50 (MCF7): 1000 nM | IC50 (HCT-116 [15]): 4000 nM | IC50 [16]: 2000 nM

CCCCCN(CCCCC)c1ccc2cc(C#N)c3nc4ccccc4n3c2c1
Activity (Calf thymus DNA [1]): inactive | Activity (Homo sapiens): inactive | Activity (Escherichia coli [2]): Active | ΔTm (Calf thymus DNA [7]): 0 °C | IC50 (MCF7): 39000 nM | Activity [14]: inactive | IC50 (HCT-116 [15]): > 10000 nM | IC50 [16]: > 10000 nM | Activity (Nucleic Acid): inactive

CCCN(CCC)c1ccc2cc(C#N)c3nc4ccccc4n3c2c1
IC50 (MCF7): 2500 nM | IC50 (HCT-116 [15]): 500 nM | IC50 [16]: 300 nM

COc1cc([C@@H]2c3cc4c(cc3[C@@H](O[C@@H]3O[C@@H]5CO[C@@H](C)O[C@H]5[C@H](O)[C@H]3O)[C@H]3COC(=O)[C@H]23)OCO4)cc(OC)c1O
inhibition (DNA): inactive

CCN(CC)CCNc1ccc2cc(C#N)c3nc4ccccc4n3c2c1
IC50 (MCF7): 300 nM | IC50 (HCT-116 [15]): 200 nM | IC50 [16]: 200 nM
